What all share (experiment): NCI-60 cell line screen, 48 h
Assay [1] concerns A549 NSCLC.
In assay [2] the test system is COLO 205 colon.
Assay [3] deals with HOP-92 NSCLC.
Assay [4] relates to K-562 leukemia.
In assay [5] the test system is MCF7 breast.
Assay [6] relates to MDA-MB-231 breast.
For assay [7], the system named is MOLT-4 leukemia.
Assay [8] concerns SF-268 CNS.
For assay [9], the system named is SK-MEL-2 melanoma.
For assay [10], the system named is UACC-62 melanoma.

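Grown in 96-well plates, cells were treated for 48 hours with each compound at five concentrations. Insufficient inhibition: endpoint recorded as highest concentration tested. The concentration for 50% growth inhibition is given as GI50. Definition used: TGI = concentration required for complete inhibition of growth.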 A value given as a limit tells only on which side of the number the result lay.

`COc1ccc(CC(=O)c2ccc(O)cc2O)cc1`: the GI50 in assay [1] was above 100 µM; in [2], above 100 µM; in assay [3], 12.3 µM; in [4] it was 40.3 µM; in assay [5], above 100 µM; in assay [6], above 100 µM. For the same molecule, the GI50 in assay [7] is 57.4 µM; in assay [8], 94.5 µM; in assay [9], above 100 µM; in [10] it was 93 µM. Also, the TGI in assay [1] was above 100 µM; in [2] it was above 100 µM; in assay [3], 62.1 µM; in assay [4], above 100 µM; in assay [5] it was above 100 µM; in assay [6] it was above 100 µM. For the same molecule, the TGI in [7], in assay [8], in assay [9] and in assay [10] was above 100 µM throughout.
For the molecule `CCc1ccc2c(c1)C(=O)c1c-2n(CCCN=[N+]=[N-])c(=O)c2cc(OC)c(OC)cc12`, the GI50 in assay [1] is above 100 µM; in assay [2], above 100 µM; in assay [3], 23.8 µM; in assay [4], above 100 µM; in assay [5] it was 91.7 µM; in assay [6], above 100 µM. Besides, the GI50 in [7] was above 100 µM; in assay [8], 60.7 µM; in assay [9], above 100 µM; in assay [10] it was 91.9 µM. For the same molecule, the TGI in [1] was above 100 µM; in assay [2] it was above 100 µM; in [3] it was 94.8 µM; in [4], above 100 µM; in assay [5] it was above 100 µM; in [6], above 100 µM. In addition, the TGI in [7], in [8], in assay [9] and in [10] was above 100 µM each time.
Regarding `Cc1cn2c(/C=C3/C(=O)Nc4ccc(O)cc43)c(C)nc2s1`, the GI50 in assay [1] was 19.9 µM; in assay [2], 3.58 µM; in assay [3], 0.373 µM; in [4], 0.362 µM; in assay [5], 1.6 µM; in assay [6] it was 2.82 µM. Further, the GI50 is 4.46 µM in assay [7], 3.42 µM in assay [8], above 53 µM in assay [9] and 1.16 µM in [10]. The TGI is above 80.6 µM in assay [1]; above 100 µM in assay [2]; 8.87 µM in [3]; above 61.8 µM in assay [4]; above 33.6 µM in assay [5]; above 62.4 µM in [6]. Also, the TGI in assay [7] is 48.6 µM; in assay [8] it was 56.8 µM; in assay [9] it was above 100 µM; in assay [10] it was 11.4 µM.
Turning to `N#CSCc1ccc(Cl)c(CSC#N)c1`, the GI50 in assay [1] was 1.44 µM; in [2], 0.0513 µM; in assay [3], 0.25 µM; in assay [4], 0.0576 µM; in assay [5], 0.0465 µM; in [6], 2.36 µM. In addition, the GI50 in assay [7] was 0.109 µM; in assay [8], 0.298 µM; in assay [9] it was 16.2 µM; in assay [10], 2.53 µM. Further, the TGI is above 58.4 µM in assay [1]; 11.4 µM in assay [2]; 6.51 µM in [3]; above 45.5 µM in assay [4]; 25.6 µM in assay [5]; above 64 µM in assay [6]. In addition, the TGI was 53.5 µM in [7], 37.4 µM in assay [8], 73 µM in [9] and 23.7 µM in assay [10].
Consider `COc1cc([N+](=O)[O-])c(OC)cc1-c1nc2sccn2c1/C=N/N=C(N)N`, for which the GI50 in assay [1] is 20.8 µM; in assay [2], 66 µM; in assay [3] it was 19.3 µM; in assay [4], 1.03 µM; in assay [5], 22 µM; in assay [6], 24.2 µM. In addition, the GI50 in assay [7] is above 100 µM; in assay [8] it was 4.86 µM; in assay [9], 30.9 µM; in assay [10], 27.7 µM. Besides, the TGI in [1] was 68.7 µM; in assay [2], above 100 µM; in assay [3], 45.4 µM; in assay [4], above 100 µM; in assay [5], above 100 µM; in assay [6], 69.5 µM. Moreover, the TGI in assay [7] is above 100 µM; in assay [8], 35.3 µM; in assay [9], above 100 µM; in [10], 70.5 µM.
In the case of `O=S(=O)(c1cccc2c(I)cccc12)N1CCCNCC1`, the GI50 is 37 µM in [1]; 29.1 µM in assay [2]; 14.1 µM in assay [3]; 10.9 µM in assay [4]; 36.1 µM in assay [5]; 19.5 µM in assay [6]. The GI50 in assay [7] was 10.9 µM; in assay [8], 26.6 µM; in [9], 16.7 µM; in [10] it was 19.9 µM. Also, the TGI in assay [1] was above 100 µM; in assay [2], above 100 µM; in [3], 32.5 µM; in assay [4], 30.4 µM; in [5] it was above 100 µM; in assay [6], 36.7 µM. The TGI is 27.6 µM in [7], above 100 µM in assay [8], 33.6 µM in [9] and 37.3 µM in [10].
Regarding `Nc1c(C(=O)c2cccc(C#CCO)c2)cnn1-c1ccc(F)cc1`, the GI50 is above 25 µM in assay [1]; above 25 µM in assay [2]; above 13.2 µM in [3]; above 25 µM in assay [4]; above 25 µM in assay [5]; above 25 µM in assay [6]. The GI50 in assay [7], in assay [8], in [9] and in assay [10] was above 25 µM each time. For the same molecule, the TGI in assay [1], in assay [2], in [3], in assay [4], in [5] and in assay [6] was above 25 µM each time. The TGI in [7], in assay [8], in assay [9] and in assay [10] was above 25 µM throughout.

Values taken from PubChem BioAssay (NCI).
